{"source": "patent US10912820B2", "about": "“Use of immunomodulatory kits for immunotherapeutic treatment of patients with myeloid leukemias” (Modiblast Pharma GmbH, priority 2014, dated 2021)", "test": "In vivo treatment of healthy PVG.1N rats with single substances (safety data)", "conditions": "i.v.; for (severe) side effects (breathing, sleep, food intake, mobility, skin, weight): Picibanil 0.35 μg/rat, PGE2 1 μg/rat, PGE1 1 μg/rat; for Flow cytometric analyzes on blood cells (Teff, Treg, CD4, CD8, NK, NKT cells) compared to placebo: data not shown", "procedure": "Safety data were performed on a total of 4 rats of the healthy strain PVG.1N: they were given the clinically intended final concentrations of the single substances i.v. in the following doses: Picibanil (0.35 μg/rat), PGE2 (1 μg/rat), PGE1 (1 μg/rat) and placebo (PBS).", "data": [{"smiles": "CCCCC[C@H](O)/C=C/[C@H]1[C@H](O)CC(=O)[C@@H]1CCCCCCC(=O)O", "note": "[PGE1, Alprostadil]", "values": [{"measurement": "(severe) side effects (breathing, sleep, food intake, mobility, skin, weight)", "result": "no (severe) side effects"}, {"measurement": "Flow cytometric analyzes on blood cells (Teff, Treg, CD4, CD8, NK, NKT cells) compared to placebo", "result": "no difference compared to the placebo controls"}]}, {"smiles": "CCCCC[C@H](O)/C=C/[C@H]1[C@H](O)CC(=O)[C@@H]1C/C=C\\CCCC(=O)O", "note": "[PGE2, Prostaglandin E2]", "values": [{"measurement": "(severe) side effects (breathing, sleep, food intake, mobility, skin, weight)", "result": "no (severe) side effects"}, {"measurement": "Flow cytometric analyzes on blood cells (Teff, Treg, CD4, CD8, NK, NKT cells) compared to placebo", "result": "no difference compared to the placebo controls"}]}]}
